Measurements reported in ChEMBL document CHEMBL1158992, “Application of two-dimensional nmr spectroscopy in the structural determination of marine natural products. Isolation and total structural assignment of 4-deoxyasbestinin diterpenes from the Caribbean gorgonian Briareum asbestinum” (J Nat Prod, 1991).
In brackets after ≈: the same amount, converted by molar mass. Activity calls are given as the source filed them. The rule behind the calls is not given here.

How the values were obtained:
[1] = test system: Klebsiella pneumoniae; assay: Antimicrobial activity against Klebsiella pneumoniae; type: functional, organism-based
[2] = Cytotoxicity against CHOK1 cells; type: cell-based, Cricetulus griseus; conditions: chinese hamster, CHO-K1 cells; read-out: ED50 (the source's name)
[3] = test system: Human immunodeficiency virus; assay: Antiviral activity against HIV; type: functional, organism-based

| Structure (SMILES) | Activity [1] | CC50 [2] [µg/mL] | Activity [3] |
| --- | --- | --- | --- |
| CC(=O)O[C@H]1[C@@H]2[C@@H]3[C@@H](C[C@H]1C)[C@@H](C)CO[C@@]1(C)CC/C=C(\C)C[C@@H]2O[C@@H]31 [11-ACETOXY-4-DEOXYASBESTININ B] | Active | 2.5 (≈ 6.9 µM) | inactive |
| CC(=O)O[C@H]1[C@@H]2[C@@H]3[C@@H](C[C@H]1C)[C@@H](C)CO[C@@]1(C)CC/C=C(/C)C[C@@H]2O[C@@H]31 | Active | 4.82 (≈ 13.3 µM) |  |
| CCCC(=O)O[C@H]1[C@@H]2[C@@H]3[C@@H](C[C@H]1C)[C@@H](C)CO[C@@]1(C)CC/C=C(/C)C[C@@H]2O[C@@H]31 | Active | 3.55 (≈ 9.09 µM) |  |
| CCCC(=O)O[C@H]1[C@@H]2[C@@H]3[C@@H](C[C@H]1C)[C@@H](C)CO[C@@]1(C)CC/C=C(\C)C[C@@H]2O[C@@H]31 [4-DEOXYASBESTININ A] | Active | 3.35 (≈ 8.58 µM) |  |
